Measurements as given in patent US7465541B1, “Vitamin D3-responsive sequences located 5′-upstream of p27/kip 1 gene and methods of screening for pharmaceutical agents using the sequences” (Toshiyuki Sakai, priority 2000, dated 2008).

Experiments:
p27^Kip1 mRNA = p27^Kip1 mRNA induction in U937 cells (Northern analysis); assay type: cell-based, human; details: peaked between 24 h and 48 h, compared with 0 h
Protocol: Human cervical cancer cell line, C33A, human osteosarcoma cell lines, U2OS and MG63 were maintained in Dulbecco modified Eagle media containing 10% (v/v) fetal bovine serum (FBS) and cultivated in an atmosphere of 5% CO2 at 37° C. Human myelomonocytic cell line U937 (a generous gift from Dr. Y. Honma of the Saitama Cancer Research Institute, Saitama, Japan) was cultivated in Rosweli Park Memorial Institute (RPMI) 1640 media supplemented with 10% (v/v) fatal bovine serum in an atmosphere of 5% CO2.
For this purpose, a series of 5′ deletion constructs of the p27^Kip1 promoter were examined.

NF-YA mRNA = test: RT-PCR of NF-YA mRNA in treated U937 cells; assay type: cell-based, human; details: 10^−7 M, time course, primers F1/R and F2/R
Protocol: RT-PCR of NF-YA mRNA was carried out as follows. […] RT-PCR was performed using the RNA PCR Kit Ver. 2.1 (Takara, Tokyo, Japan). The forward (F) and reverse (R) primers for NF-YA-short and -long were […] (Primer F1) (SEQ ID NO: 12), […] (primer F2) (SEQ ID NO: 13), and […] (primer R) (SEQ ID NO: 14). The forward and reverse primers for G3PDH were […] (SEQ ID NO: 15) and […] (SEQ ID NO: 16). One microgram of total RNA was used for RT-PCR. PCR was performed for 25 and 20 cycles to detect NF-YA subunits and G3PDH, respectively. PCR products were subjected to electrophoresis in a 3% agarose gel. The primers for NF-YA were designed to detect two different isoforms simultaneously and were located in regions that were conserved in the two isoforms (Li, X. Y. et al. (1992) J. Biol. Chem., 267, 8984-8990).

[1] = tested on: −555/−512 region of the human p27^Kip1 promoter fused to SV40 early promoter; test: Luciferase reporter assay with −555/−512 sequence upstream of SV40 early promoter in U937 cells; assay type: cell-based
Source text: Furthermore, the present inventors generated constructs containing four tandem copies of the specific sequence of the p27^Kip1 promoter fused to a minimal promoter. A double-stranded 52-bp DNA fragment containing a 44-bp sequence corresponding to the −555/−512 region of the human p27^Kip1 promoter and linker sites (indicated by lower case letters below) at both ends was generated from two oligonucleotides. The top strand (5′-aggg[…]-3′) (SEQ ID NO: 5) and the bottom strand (5′-ccct[…]-3′) (SEQ ID NO: 6) were annealed, ligated, blunted and subcloned into the SmaI site upstream of the SV40 early promoter in the PicaGene Promoter Vector 2 (Nippon Gene, Tokyo, Japan) in a forward or reverse orientation to generate PGPV2[−555/−512wild]4 and PGPV2[R−555/−512wiId]4, respectively. Similarly, three types of double-stranded mutated oligonucleotides of the 44-bp sequence were also inserted into the same vector to generate the mutated constructs, PGPV2[−555/−512mSp1-1]4, PGPV2[−555/−512 mSp1-2]4, PGPV2[−555/−512mCTf]4 (see Table 1). Oligonucleotides used in Example 3-6 are shown as follows (SEQ ID NOS: 5, 6, and 18-31).
The present inventors concluded that the region between −555 and −512 relative to the translation start site (−118 and −75 relative to the transcription start site) was sufficient for vitamin D3-induced transcription of the p27^Kip1 gene. Furthermore, both the Sp1-1 site and the CCAAT box in this region were vitamin D3-responsive elements and were required for vitamin D3-induced transcription of the p27^Kip1 gene.

NF-I = test: Gel shift assay, NF-I binding to NF-Iwild probe, nuclear extracts of treated U937 cells; assay type: cell-based, human; details: U937 cells treated 36 h, versus vehicle
Protocol: Two μg of each nuclear extract was incubated with the −555/−512wild probe (lanes 1-3), −534/−512wild probe (lanes 4-6), or NF-Iwild probe (lanes 7-12) to detect Sp1, NF-Y, and NF-I, respectively.
Nuclear extracts of U937 cells were prepared according to the procedure of Andrew and Faller (Andrews, N. C. and Faller, D. V. (1991) Nucleic Acids Res., 19, 2499). […] Gel shift assays were carried out as described by Orita et al. (Orita, T. et al. (1997) J. Biol. Chem., 272, 23216-23223). The reaction mixture for the gel shift assay (25 μl final volume) contained 20 mM Tris-HCl (pH 8.0), 100 mM KCl, 10% glycerol, 1 μg of poly(dl-dC), and 2 μg of nuclear extract. After preincubation for 15 minutes at 23° C., probe DNA (approximately 0.5 ng, 10,000 cpm) was added to the mixture, and the binding reaction was allowed to proceed at 23° C. for 20 min. The resulting product was then resolved by electrophoresis on 4% acrylamide-bisacrylamide (29:1), 0.5×TBE nondenaturing gel at 10 V/cm for 150 min. Competition analyses were performed by mixing the indicated amount of appropriate competitor DNA to the binding reaction prior to addition of nuclear extracts. In supershift experiments, antibodies against Sp1 (sc-59X; Santa Cruz), Sp3 (sc-644X; Santa Cruz), and C/EBP-α (sc-7204X; Santa Cruz) were purchased. The antibodies against NF-YA, -YB, and -YC (IgG fraction) were kindly provided by Drs. […]

SMILES: C=C1/C(=C\C=C2/CCC[C@]3(C)[C@@H]([C@H](C)CCCC(C)(C)O)CC[C@@H]23)C[C@@H](O)C[C@@H]1O [vitamin D3, 1,25-dihydroxyvitamin D3]
- p27^Kip1 mRNA induction (p27^Kip1 mRNA): approximately 4 fold
- long form of NF-YA mRNA (NF-YA mRNA): decreased gradually
- response to vitamin D3, one copy of the 44 bp fragment [1]: did not respond
- stimulatory effect, PGPV2[−555/−512mCTF]4 ([1]; 40 h, 10^−7 M): abolished any stimulatory effect
- stimulatory effect, PGPV2[−555/−512 mSp1-1]4 ([1]; 40 h, 10^−7 M): abolished any stimulatory effect
- response to vitamin D3, four copies of the 44 bp fragment (PGPV2[−555/−512wild]4) ([1]; 40 h, 10^−7 M, orientation-dependent): conferred significant response
- luciferase activity, PGPV2[−555/−512 mSp1-2]4 ([1]; 40 h, 10^−7 M, similar to p27PF and PGPV2[−555/−512wild]4): activated
- DNA binding activity of NF-I (NF-I): not changed
